According to patent US20220218827A1, “DELIVERY OF THERAPEUTIC COMPOUNDS WITH IRON OXIDE NANOPARTICLES” (Memorial Sloan Kettering Cancer Center, priority 2012, published 2022):

Key:
[1] = system: human prostate adenocarcinoma cells (LNCaP); test: LNCaP cell viability, Alamar Blue method; format: cell-based; details: 48 h, [Doxorubicin]final=7.5 μM, free or intercalated drug, read-out: reduction in cell viability
Method: Cell viability and in vivo studies. LNCaP cells were seeded on black-walled, clear bottom 96-well plates at a cell density of 10,000 cells per well, supplemented with 100 iL 10% FBS-containing RPMI medium. […] Controls included cells incubated with unloaded nanoparticles or DMSO, corresponding to the free drug's final solvent concentration. Subsequently, the old medium was aspirated, and cell viability was assessed via the Alamar Blue method (Invitrogen). Briefly, the cells were supplemented with 10%-alamar-blue-containing medium (10% FBS-containing RPMI), followed by 3 h incubation in a humidified incubator (37° C., 5% CO2) and recording of fluorescence emission (λ ? =565 nm) with the SpectraMax M5 plate reader. […] Experiments were performed in triplicate unless otherwise stated, with the results are presented as mean±SEM.
Cell viability and in vivo studies. […] Subsequently, the old medium was aspirated, and cell viability was assessed via the Alamar Blue method (Invitrogen). Briefly, the cells were supplemented with 10%-alamar-blue-containing medium (10% FBS-containing RPMI), followed by 3 h incubation in a humidified incubator (37° C., 5% CO2) and recording of fluorescence emission ? ran, λειλ=585 nm) with the SpectraMax M5 plate reader.

PC3 tumors = test: Tumor growth in nude mice bearing PC3 tumors; format: in vivo; details: versus control animals
Method: Nude, male mice (n=10) bearing PC3 tumors on their flanks were treated on day 0, day 2 and day 6 with 100 μι, either doxorubicin alone or doxorubi tin-loaded Feraheme®, both at a final doxorubicin concentration of 0.28 mM. Changes in tumor size were evaluated with a microcaliper, and at the end of the 8-day study the mice were euthanized, according to the Institutional Animal Care and Use Committee guidelines. • Data Analysis.
Specifically, the mice were treated with equal concentrations of the drug on day 0, 2 and 6, and tumor growth was determined with microcalipers. Control animals were treated with 100 μι, of 10% DMSO-containing PBS to match the DMSO content of the free doxorubicin injection, since the drug was dissolved in DMSO and diluted to the desired concentration in PBS. On day 6 and 8, the tumors were measured, and the change in tumor growth was determined by comparing the volume of tumors from treated animals with those of control ones.

## COc1cccc2c1C(=O)c1c(O)c3c(c(O)c1C2=O)C[C@@](O)(C(=O)CO)C[C@@H]3O[C@H]1C[C@H](N)[C@H](O)[C@H](C)O1 [doxorubicin]
[1]
  cytotoxicity at […]: 60%
PC3 tumors; iv day 0, 2 and 6, measured day 8, 0.28 mM doxorubicin
  suppression of tumor growth after three injections: 34%
PC3 tumors; iv day 0 and 2, measured day 6, 100 μL of 0.28 mM doxorubicin
  tumor regression after two injections: some tumor growth
